Test results: patent publication US20220143128A1, “METHODS FOR TREATING TRAUMATIC BRAIN INJURY” (BCell Solutions, Inc., priority 2018, published 2022)
“Also recorded” adds a separate entry of the source.

How the values were obtained:
[1] = tested on: cell surface CLIP on immune cells in the spleen; experiment: Dose response of CD74 cleavage inhibitors on cell surface CLIP in the spleen after FPI; format: in vivo; details: for cell surface CLIP on immune cells in the spleen / optimal dose to reduce CLIP after FPI: administered 30 min after FPI, spleen at 1 day post-FPI
Experimental: FIGS. 5A-5C is a set of bar graphs showing a dose response curve of inhibitors of various specific mechanisms of cleavage of full-length CD74 into CLIP 24 hours after FPI.
In addition to inhibiting MIF-binding to CD74, we have reduced the level of CLIP by inhibiting the distinct mechanisms by which CD74 is cleaved. Drugs that inhibit CD74 cleavage have been administered 30 min after FPI and the levels of CLIPs in the spleen have been assessed at 1 day post-FPI. […] We also found, using the proteasomal inhibitor, Bortezomib (PS341), that this compound was most efficacious at reducing cell-surface CLIP on B cells at 0.1 mg·kg, i.p. (FIG. 5B). Finally, Cystatin S is an inhibitor of Cathepsin S, which cleaves CD74 in B cells, dendritic cells, and macrophages^11,12. […] The optimal dosage is 50 mg/kg (FIG. 5C). At concentrations greater than 50 mg/kg, the compound appeared to be toxic under the tested conditions.

GFAP+ astrocytes = experiment: GFAP-labeling of the astrocytic response in perilesion cortex after FPI; format: in vivo, mouse; details: treatment at 30 mins after FPI (ISO1 10 mg/kg), 3 days after FPI
[2] = tested on: CLIP+ B cells in the brain; experiment: Brain flow cytometry for CLIP+ B cells after fluid percussion injury (FPI); format: in vivo, mouse
Experimental: The contributions of full-length cell-surface CD74 and its proteolytic products (CLIPs) in the pathogenic mechanisms that follow TBI were assessed. First, we determined if full-length CD74 on B cells was altered after fluid percussion injury (FPI) in an FPI model of TBI. A mouse model of TBI was produced and splenoctyes from those mice were isolated following FPI. The model, referred to as the “fluid percussion injury model”, is referenced in Tobin et al Acta Neuropathologica Communications 2014. Splenocytes were stained with anti-CD19 for B cells and counterstained with anti-CD74.
In order to address the innate immune components of CD74, a series of experiments in which MIF-binding to CD74 was antagonized at 30 min after FPI were performed. MIF mRNA levels are elevated after TBI. This occurs as a part of the innate immune response, via MIF-binding to, and signaling through cell surface CD74^35. We utilized ISO1, a small molecule that inhibits MIF-binding to CD74, to determine whether inhibition of MIF-binding would alter FPI-induced, CLIP-related cellular (FIG. 2) and neuroanatomical outcomes (FIGS. 3 and 4). ISO1 was administered at 30 mins after FPI and performed brain flow cytometry to assess what percent of leukocytes are CLIP+ B cells. It should be noted that less than 0.001 B cells enter the brain in naïve mice so they are not included in the graph.

[3] = tested on: FJC-labeled cells in the perilesion area; experiment: Fluorojade C (FJC) histology of neurodegeneration in peri-injury cortex after FPI; format: in vivo, mouse; details: 10 mg/kg at 30 mins after FPI; 3 days after FPI
Experimental: FIG. 3A is a photomicrograph depicting FJC-staining in the peri-lesion area of a mouse treated with DMSO 30 mins after FPI. 3B is a comparative photomicrograph from a mouse treated with ISO1 at 30 mins after FPI. […] N=6 per group.
We assessed the effects of 10 mg/kg of ISO1 administered at 30 mins after FPI on neurodegeneration (FIG. 3), and the astrocytic response (FIG. 4), in peri-injury cortex, at 3 days after FPI.

CLIPs in MHCII = details: treatment with Cystatin S; literature reference; cited from earlier work

With `C[C@H]1CCC/C=C/[C@@H]2C[C@H](O)C[C@H]2[C@H](O)/C=C/C(=O)O1` [Brefeldin A] the “cell surface CLIP on immune cells in the spleen” value [1] was “reduces cell surface CLIP on immune cells in the spleen” and the “optimal dose to reduce CLIP after FPI” value [1] was 5 mg/kg.

With `COC(=O)CC1CC(c2ccc(O)cc2)=NO1` (centres unmarked) [ISO1, 4,5-Dihydro-3-(4-hydroxyphenyl)-5-isoxazoleacetic acid methyl ester] the “astrocytic response (GFAP-labeling) in perilesion cortex” value (GFAP+ astrocytes) was “significantly reduced the peak astrocyte response; also recorded: significantly reduced GFAP-labeling”, the “percent of CLIP+ B cells in the brain” value ([2]; administered at 30 min after FPI, brain at 24 hrs after FPI) was “significantly reduced the percentage of CLIP+ B cells in the brain; also recorded: reduced the percent of B cells that express CLIP in the brain” and the “dose providing the most significantly robust decrease in the percent of CLIP+ B cells entering the brain” value ([2]; at 30 mins after FPI) was 10 mg/kg. For the same molecule, the “neurodegeneration (total number of FJC-labeled cells in the perilesion area)” value [3] was “no effect on neurodegeneration; also recorded: no effect on the total number of FJC-labeled cells”.

With `CC(C)C[C@H](NC(=O)[C@H](Cc1ccccc1)NC(=O)c1cnccn1)B(O)O` [Bortezomib] the “dose most efficacious at reducing cell-surface CLIP on B cells” value ([1]; i.p., 30 min after FPI, 24 hours after FPI) was 0.1 mg·kg.

B1: Cystatin S: inhibitor of Cathepsin S, which cleaves CD74 in B cells, dendritic cells, and macrophages (protein, UniProt P01036 21-141, looked up)
Cystatin-S: SSSKEENRIIPGGIYDADLNDEWVQRALHFAISEYNKATEDEYYRRPLQVLRAREQTFGGVNYFFDVEVGRTICTKSQPNLDTCAFHEQPELQKKQLCSFEIYEVPWEDRMSLVNSRCQEA
For B1, the “level of CLIPs in MHCII” value (CLIPs in MHCII) is given as “reduces the level of CLIPs in MHCII”, the “concentrations at which the compound appeared to be toxic” value ([1]; FPI mice, under the tested conditions) is given as “greater than 50 mg/kg” and the “cell surface CLIP on immune cells in the spleen” value [1] is given as “reduction in immune cell-surface CLIP; also recorded: reduced immune cell-surface CLIP”. The “optimal dose to reduce CLIP after FPI” value [1] was 50 mg/kg.
